{
  "source": "patent US20240041898A9",
  "about": "“NEUROSTEROIDS AND ENANTIOMERS THEREOF FOR THE PREVENTION AND TREATMENT OF NEURODEGENERATIVE CONDITIONS” (priority 2019, published 2024)",
  "test_system": "pressure-loaded ex vivo rat retinas",
  "assay_type": "cell-based",
  "conditions": "75 mmHg; for NDS (neuronal damage score) / NDS, Average: 0-4 scale; for NDS (neuronal damage score) / NFLT vs. RT (%) / Damaged cells in GCL: 24 h, mean±SD; for NDS (neuronal damage score) / NDS, Average / Damaged cells in GCL / NFLT, Average / Damaged cell, Average: neurosteroid 1 μM; for NDS, Average / NFLT, Average / Damaged cell, Average: Average of 9; for axonal swelling in the nerve fiber layer (NFL), light micrographs: 1 μM; for NFLT vs. RT (%): neurosteroid 1 μM (Picro 1 μM, 3-MA 10 mM where named); for Damaged cell, Average: GCL",
  "method": "Rat ex vivo Eyecup Preparation—Rat ex vivo eyecups were prepared from 28-32 day old male Sprague-Dawley rats (Charles River Laboratories International Inc., Wilmington, MA). The anterior half of the enucleated eyes was carefully removed to make eyecup preparations. Eyecups were placed at the bottom of a 100 ml glass beaker filled with aCSF (artificial cerebrospinal fluid) containing (in mM): 124 NaCl, 5 KCl, 2 MgSO4, 2 CaCl2, 1.25 NaH2PO4, 22 NaHCO3, and 10 glucose, and incubated at 30° C. for 24 hours using a closed pressure-loading system (FIG. 1C). pH was maintained at 7.35 to 7.40. In the closed-pressure system, a glass beaker with the eyecup was placed at the bottom of an acrylic pressure chamber (2,000 ml volume). A 95% O2-5% CO2 gas mixture was delivered through disposable plastic tubing with an infusion valve and a control dial on the lid of the pressure chamber and an air filter (Cat #SLGP033RS, Merck Millipore, Billerica, MA). The plastic tubing delivering the gas terminated 1 cm above the bottom of the beaker.\nAcutely prepared eyecups were incubated in gassed aCSF for at least 1 h at 30° C. before pressure loading. In some experiments, AlloP (1 μM), ent-AlloP (1 μM), and 3-MA (10 mM) were dissolved in aCSF at the time of experiment and administered by bath perfusion. Eyecup preparations were treated with these drugs for 1 h at 30° C. before pressure loading. For pressure loading, the 95% O2-5% CO2 gas mixture was infused until the pressure reading given by a manometer reached the appropriate level. The pressure was then locked by adjusting the control dial of the effusion valve, and monitored continuously for 24 h at 30° C.\nData analysis of morphometry—The middle portion of the retina was examined, greater than 1,200 μm away from the center of the optic disc along the inner limiting membrane (ILM). The nerve fiber layer thickness (NFLT) was measured by light microscopy along 5 lines perpendicular to the pigment epithelium at a distance of 15 μm from each other around 1,200 μm away from the center of the optic disc. The average NFLT was determined in 9 different light micrographs taken from 5 eyecup samples in each condition, divided by total retinal thickness, and mean±standard deviation (%) was analyzed and compared with control.\nThe density of degenerated cells characterized by nuclear chromatin clumping or necrosis in the GCL was determined by counting 9 fields of 500 μm length in light micrographs taken from the block of the middle retinal part 950 to 1450 μm away from the center of the optic disc.\nThe severity of neuronal damage was assessed by light microscopy using a neuronal damage score (NDS). The NDS was determined in 9 different light micrographs taken from 5 eyecup samples in each condition. The NDS rates neuronal damage in the inner nuclear layer (INL) and the inner plexiform layer (IPL) on a 0-4 scale with 0 signifying no neuronal damage and 4 indicating very severe damage. Criteria used in establishing the degree of neuronal damage included the extent of cytoplasmic swelling in the IPL and the number of neurons in the INL showing signs of severe cytoplasmic swelling and coarse clumping of nuclear chromatin. The highest NDS rating (4) is given when the IPL discloses apparent spongiform appearance due to dendritic swelling and when most cell bodies in the INL show severe cytoplasmic swelling and coarse clumping of nuclear chromatin. If the damage is of a lesser degree, a rating of 3 is given. NDS 2 is assigned when cell bodies in the INL are sporadically swollen. […] Fine dendritic swelling in a limited area of the IPL without damage in the INL is described by NDS 1.\nNFLT, density of degenerated cells in the GCL, and NDS were determined as the measurement of 10 different areas from three eyes per experimental condition. These morphometrical parameters were assessed by three raters, who remained unaware of the experimental condition. […]",
  "data": [
    {"smiles": "CC(=O)[C@H]1CC[C@H]2[C@@H]3CC[C@H]4C[C@H](O)CC[C@]4(C)[C@H]3CC[C@]12C", "note": "[AlloP, allopregnanolone]", "values": [
      {"measurement": "NDS (neuronal damage score)", "value": "0.2 ± 0.4"},
      {"measurement": "NDS, Average", "value": 0.2},
      {"measurement": "axonal swelling in the nerve fiber layer (NFL), light micrographs", "value": "attenuated"},
      {"measurement": "NFLT vs. RT (%)", "value": "1.5 ± 0.6", "unit": "%"},
      {"measurement": "Damaged cells in GCL", "value": "2.0 ± 1.7 per 250 μm of retina"},
      {"measurement": "NFLT, Average", "value": 1.5, "unit": "%"},
      {"measurement": "Damaged cell, Average", "value": 2.0}
    ]},
    {"smiles": "CC(=O)[C@@H]1CC[C@@H]2[C@H]3CC[C@@H]4C[C@@H](O)CC[C@@]4(C)[C@@H]3CC[C@]21C", "note": "[ent-AlloP, ent-allopregnanolone]", "values": [
      {"measurement": "NDS (neuronal damage score)", "value": "0.2 ± 0.4"},
      {"measurement": "NDS, Average", "value": 0.2},
      {"measurement": "axonal swelling in the nerve fiber layer (NFL), light micrographs", "value": "substantially inhibited"},
      {"measurement": "NFLT vs. RT (%)", "value": "1.6 ± 0.6", "unit": "%"},
      {"measurement": "Damaged cells in GCL", "value": "1.9 ± 1.2 per 250 μm of retina"},
      {"measurement": "NFLT, Average", "value": 1.6, "unit": "%"},
      {"measurement": "Damaged cell, Average", "value": 1.9}
    ]}
  ]
}
